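Values below derive from 48-hour exposures of cells grown in 96-well plates, with endpoints linearly interpolated between the two concentrations bracketing the appropriate inhibition level. GI50 = concentration required for 50% inhibition of growth.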 The source made the active and inactive calls. Cut-off read from the data, not from the text of the source: active = GI50 up to about 1.1 µM and inactive = higher. Where a SMILES comes first, the peptide text is derived from it. [ ]: non-standard residue; d: D form. Ac5c = NC1(C(=O)O)CCCC1
Tests used:
Experiment in all cases: NCI tumour cell line growth inhibition, 48 h
SK-MEL-28 = system: SK-MEL-28
EKVX = system: EKVX
HT-29 = system: HT-29
RPMI-8226 = system: RPMI-8226
HCC 2998 = system: HCC 2998
SN12C = system: SN12C
CAKI-1 = system: CAKI-1
UACC-257 = system: UACC-257
UO-31 = system: UO-31
Malme-3M = system: Malme-3M
A498 = system: A498
PC-3 = system: PC-3
SF-268 = system: SF-268
SK-MEL-5 = system: SK-MEL-5
DU-145 = system: DU-145
SF-539 = system: SF-539
Hs-578T = system: Hs-578T
LOX IMVI = system: LOX IMVI
HOP-62 = system: HOP-62
T47D = system: T47D

Measured: GI50

Nn1c(CCCCCCCCc2nnc(COc3c(O)ccc4ccccc34)n2N)nnc1COc1c(O)ccc2ccccc12
inactive: SK-MEL-28 > 100 µM | EKVX > 100 µM | HT-29 > 100 µM | RPMI-8226 63.1 µM | HCC 2998 > 100 µM | SN12C > 100 µM | CAKI-1 27.2 µM | UACC-257 > 100 µM | UO-31 > 100 µM | Malme-3M > 100 µM | A498 > 100 µM | PC-3 > 100 µM | SF-268 > 100 µM | SK-MEL-5 > 100 µM | DU-145 > 100 µM

Cc1ccc(NC(=O)C(=O)C2C(=O)C3=C(CC2(C)C)NC2C=CC=CC2S3)c(C)c1 (stereo not drawn)
inactive: SK-MEL-28 > 100 µM | EKVX 73.8 µM | HT-29 > 100 µM | SF-539 43.8 µM | HCC 2998 > 100 µM | SN12C > 100 µM | Hs-578T 51.3 µM | CAKI-1 > 100 µM | LOX IMVI > 100 µM | UACC-257 > 100 µM | UO-31 48.2 µM | PC-3 > 100 µM | SF-268 36.8 µM | SK-MEL-5 85.1 µM | DU-145 > 100 µM

O=C1/C(=C/c2ccco2)N=C(c2ccccc2)N1c1ccc(S(=O)(=O)Nc2nccs2)cc1
inactive: HOP-62 > 100 µM | EKVX 33.2 µM | HT-29 > 100 µM | RPMI-8226 41.7 µM | SF-539 > 100 µM | HCC 2998 > 100 µM | T47D 80.4 µM | SN12C > 100 µM | CAKI-1 > 100 µM | LOX IMVI > 100 µM | UACC-257 27.6 µM | UO-31 57.1 µM | Malme-3M > 100 µM | PC-3 86.3 µM | SF-268 > 100 µM | SK-MEL-5 87.9 µM | DU-145 > 100 µM

CCCCc1ccc(C#CC#Cc2ccc(CCCC)s2)s1
inactive: HOP-62 > 100 µM | EKVX > 100 µM | HT-29 > 100 µM | RPMI-8226 > 100 µM | SF-539 > 100 µM | HCC 2998 > 100 µM | T47D > 100 µM | SN12C > 100 µM | Hs-578T > 100 µM | CAKI-1 > 100 µM | UACC-257 > 100 µM | UO-31 > 100 µM | A498 > 100 µM | SF-268 > 100 µM | SK-MEL-5 > 100 µM | DU-145 > 100 µM

COc1ccc(C(CC(=O)c2ccccc2)C(=O)c2ccc3c(c2)OCO3)cc1 (stereo not drawn)
inactive: SK-MEL-28 > 100 µM | HOP-62 > 100 µM | EKVX > 100 µM | RPMI-8226 > 100 µM | HCC 2998 > 100 µM | T47D 77.3 µM | SN12C > 100 µM | CAKI-1 > 100 µM | UACC-257 > 100 µM | UO-31 > 100 µM | Malme-3M 79.3 µM | A498 > 100 µM | PC-3 > 100 µM | SF-268 > 100 µM | SK-MEL-5 > 100 µM | DU-145 > 100 µM

CC(C)(C)C1CCC2c3c([nH]c4ccccc34)C3C(=O)N(c4cccc([N+](=O)[O-])c4)C(=O)C3C2C1 (stereo not drawn)
inactive: SK-MEL-28 21 µM | HOP-62 29.6 µM | EKVX 22.4 µM | HT-29 17.7 µM | SF-539 49.9 µM | HCC 2998 27.7 µM | T47D 28.8 µM | SN12C 7 µM | CAKI-1 19.6 µM | LOX IMVI 17.8 µM | UACC-257 22.5 µM | UO-31 35.2 µM | Malme-3M 23.2 µM | A498 41.2 µM | PC-3 27 µM | SF-268 21 µM | DU-145 25.9 µM

CC1OC(n2cnc3c(N)nc(Cl)nc32)C(C)(O)C1O (stereo not drawn)
inactive: HOP-62 > 25 µM | EKVX > 25 µM | HT-29 > 25 µM | RPMI-8226 > 25 µM | SF-539 > 25 µM | HCC 2998 > 25 µM | T47D > 25 µM | SN12C > 25 µM | Hs-578T > 25 µM | CAKI-1 > 25 µM | LOX IMVI > 25 µM | UACC-257 > 25 µM | UO-31 16.7 µM | Malme-3M > 25 µM | A498 > 25 µM | SF-268 > 25 µM | SK-MEL-5 > 25 µM | DU-145 > 25 µM

C/C(=C\COP(=O)(O)OP(=O)(O)O)CC/C=C(\C)CNc1ccc([N+](=O)[O-])cc1
inactive: SK-MEL-28 > 100 µM | HOP-62 > 100 µM | EKVX > 100 µM | HT-29 > 100 µM | RPMI-8226 > 100 µM | SF-539 > 100 µM | T47D > 100 µM | SN12C > 100 µM | Hs-578T > 100 µM | CAKI-1 > 100 µM | LOX IMVI > 100 µM | UACC-257 71.8 µM | UO-31 > 100 µM | Malme-3M > 100 µM | PC-3 > 100 µM | SF-268 > 100 µM | SK-MEL-5 > 100 µM | DU-145 > 100 µM

CC1=CC(C)C(O)C(C)/C=C\C(O)C/C=C(/C)C(=O)CC(O)C(C)\C=C/C=C\C=C/C(=O)NC2=C(O)C(=O)c3c(cc(C)c(O)c3C1=O)C2=O (stereo not drawn)
inactive: SK-MEL-28 > 100 µM | HOP-62 > 100 µM | EKVX > 100 µM | HT-29 56.4 µM | RPMI-8226 > 100 µM | SF-539 62.1 µM | HCC 2998 86.1 µM | T47D > 100 µM | SN12C > 100 µM | Hs-578T 46 µM | CAKI-1 > 100 µM | LOX IMVI > 100 µM | UACC-257 > 100 µM | UO-31 > 100 µM | PC-3 > 100 µM | SF-268 94.4 µM | SK-MEL-5 91 µM | DU-145 76.6 µM

CCNC1=C(NC(=O)CC)C(=O)c2ccccc2C1=O
inactive: SK-MEL-28 > 100 µM | HOP-62 > 100 µM | EKVX > 100 µM | HT-29 34.8 µM | RPMI-8226 > 100 µM | SF-539 > 100 µM | HCC 2998 73.1 µM | T47D > 100 µM | SN12C 73.3 µM | Hs-578T > 100 µM | UACC-257 30.2 µM | Malme-3M 22.9 µM | PC-3 42.6 µM | SF-268 > 100 µM | SK-MEL-5 54.1 µM | DU-145 > 100 µM

COC1(CCO)CC=CCC1(CCO)OC (stereo not drawn)
inactive: SK-MEL-28 > 100 µM | HOP-62 > 100 µM | EKVX > 100 µM | HT-29 > 100 µM | RPMI-8226 > 100 µM | T47D > 100 µM | SN12C > 100 µM | Hs-578T > 100 µM | CAKI-1 > 100 µM | LOX IMVI > 100 µM | UACC-257 > 100 µM | UO-31 > 100 µM | Malme-3M > 100 µM | PC-3 > 100 µM | SF-268 > 100 µM | SK-MEL-5 > 100 µM | DU-145 > 100 µM

O=[N+]([O-])c1cc(/N=N/c2c(O)ccc3cc(S(=O)(=O)O)ccc23)c(O)c([N+](=O)[O-])c1
inactive: SK-MEL-28 > 100 µM | HOP-62 > 100 µM | EKVX > 100 µM | HT-29 50.2 µM | RPMI-8226 > 100 µM | T47D > 100 µM | SN12C > 100 µM | Hs-578T > 100 µM | CAKI-1 > 100 µM | LOX IMVI 49 µM | UACC-257 > 100 µM | UO-31 39.4 µM | Malme-3M > 100 µM | PC-3 90.6 µM | SF-268 > 100 µM | SK-MEL-5 > 100 µM | DU-145 > 100 µM

COc1ccccc1-c1cc(=O)c2ccc(OC)c(OC)c2o1
inactive: SK-MEL-28 > 100 µM | HOP-62 > 100 µM | EKVX 58.7 µM | HT-29 34.3 µM | RPMI-8226 47.6 µM | SF-539 > 100 µM | HCC 2998 52.8 µM | T47D 19.3 µM | SN12C 63.1 µM | Hs-578T 41.7 µM | CAKI-1 > 100 µM | LOX IMVI 33.1 µM | UACC-257 44.9 µM | UO-31 30.2 µM | Malme-3M 92.5 µM | A498 37.8 µM | SF-268 > 100 µM | SK-MEL-5 27.7 µM | DU-145 55.5 µM

COC(CCC[N+](C)(C)C)CC[N+](C)(C)C (stereo not drawn)
inactive: SK-MEL-28 > 100 µM | HOP-62 > 100 µM | EKVX > 100 µM | HT-29 > 100 µM | RPMI-8226 > 100 µM | SF-539 > 100 µM | HCC 2998 > 100 µM | SN12C > 100 µM | CAKI-1 > 100 µM | UACC-257 > 100 µM | UO-31 > 100 µM | Malme-3M > 100 µM | PC-3 > 100 µM | SF-268 > 100 µM | SK-MEL-5 > 100 µM | DU-145 > 100 µM

Cc1nnc2sc(-c3ccc(N)cc3)nn12
inactive: SK-MEL-28 > 100 µM | HOP-62 > 100 µM | EKVX > 100 µM | HT-29 > 100 µM | RPMI-8226 > 100 µM | SF-539 > 100 µM | HCC 2998 > 100 µM | T47D > 100 µM | SN12C > 100 µM | Hs-578T 89.3 µM | CAKI-1 > 100 µM | UACC-257 > 100 µM | UO-31 > 100 µM | Malme-3M > 100 µM | PC-3 > 100 µM | SF-268 > 100 µM | SK-MEL-5 > 100 µM | DU-145 > 100 µM

COC(=O)C1(NC(=O)C(C)NC(=O)C(CCCCN)NC(=O)C(CC(C)C)NC(C)=O)CCCC1 (stereo not drawn) (Ac-LKA[Ac5c]-OMe; configuration not given here)
inactive: SK-MEL-28 > 100 µM | HOP-62 > 100 µM | EKVX > 100 µM | HT-29 > 100 µM | RPMI-8226 > 100 µM | SF-539 > 100 µM | HCC 2998 > 100 µM | T47D > 100 µM | SN12C > 100 µM | Hs-578T > 100 µM | UACC-257 > 100 µM | UO-31 > 100 µM | PC-3 > 100 µM | SF-268 > 100 µM | SK-MEL-5 > 100 µM
